# From patent publication US20260256667A1, “ORAL CARE COMPOSITION FOR INCREASING SELF CONFIDENCE” (GIVAUDAN SA, priority 2023, published 2026)
# Tests used:
# [1] = Breath-freshness self-assessment (three questions) after teeth brushing, home use test; format: in vivo, human
# Experimental: (§1) Twenty-six participants were pre-screened to ensure that they had no underlying dental problems.
# (§2) A repeated measures design, with a randomised repeated trial per product was used. Three toothpastes were prepared with: • Control: peppermint flavour • EC180—150 ppm: peppermint flavour+150 ppm EC180 (concentration in toothpaste) • EC180—250 ppm: peppermint flavour+250 ppm EC180 (concentration in toothpaste)
# (§3) Participants were given duplicate tubes of each toothpaste (6 tubes in total). All products were assigned different codes and presented in white tubes to prevent colour as a confounding factor.
# (§4) The participants did the test each morning in their homes as per their usual teeth cleaning time (between 7:00 am and 10:00 am) and were asked to refrain from using other oral practices apart from brushing with test product. Testing was done with one product a day with a one-day separation left before testing the next product. A questionnaire was sent to them via an online link for them to complete before teeth cleaning and after teeth cleaning. Responses before teeth cleaning were recorded as their baseline scores.
# The data for this test was collected through an online questionnaire set up via SurveyMonkey Audience. The questionnaires on breath-freshness and self-confidence was set up for participants to respond to at the five time-points: (i) pre-brush baseline (ii) 0 minutes immediately post-bush (iii) 30 minutes post-brush (iv) 60 minutes post-brush. A total of 47 datasets per product was input for analysis and 5 incompletes were removed.
# Breath freshness was self-evaluated with a set of three questions asking (i) whole mouth clean feel; (ii) natural freshness in mouth; and (lii) cooling sensation in the mouth. […] Breath assessment recorded before teeth brushing was categorized as the baseline measure.
# (§5) To evaluate a change effect from the baseline (pre-brush) to the different times post-brush, a mean difference between each time-point to the baseline mean score was calculated to obtain delta values.
# [2] = Self-confidence, 9-item subscale of the modified CSAI-2 questionnaire, after teeth brushing, home use test; format: in vivo, human
# Experimental: Individual's thoughts and feelings in relation to their self-confidence as per their perceived oral health (such as breath) were measured using a 9-item subscale of the modified Competitive State Anxiety Questionnaire (CSAI-2).
# The nine items in the Self-confidence scale include five that describe positive expectations (“I feel self-confident”, “I am confident I can meet the challenge”, “I'm confident about performing well”, “I'm confident because I mentally picture myself reaching my goal”, and “I'm confident about coming through under pressure”), and four that describe a generalised feeling of calmness (“I feel calm”, “I feel comfortable”, “I feel secure”, “I feel mentally relaxed”). All items were rated on a 4-point scale anchored by 1 (“Not at all”) and 4 (“Very much so”).
# as §1, §2, §3, §4
# The questionnaires on breath-freshness and self-confidence was set up for participants to respond to at the five time-points: (i) pre-brush baseline (ii) 0 minutes immediately post-bush (iii) 30 minutes post-brush (iv) 60 minutes post-brush. A total of 47 datasets per product was input for analysis and 5 incompletes were removed.
# Self-confidence was measured with the 9-Item subscale of the Modified Competitive State Inventory-2 (CSAI-2). The questionnaire uses a 4-point scale as follows:
# 1—not at all; 2—somewhat; 3—moderately so; 4—very much so.
# as §5
# [3] = employed in oral care compositions such as mouthwashes or toothpastes; cited from earlier work
# [4] = 60 minutes from brushing with a toothpaste containing EC180
structure (smiles),measurement,setting,value
"CC(C)[C@@H]1CC[C@@H](C)C[C@H]1C(=O)Nc1ccc(CC#N)cc1 [EC180, (1R,2S,5R)—N-(4-cyanomethylphenyl)-p-menthane carboxamide]",level of breath freshness vs flavoured tooth paste alone,"[1]; 10 minutes after brushing, in a flavoured tooth-paste, FIG. 1",same level of breath freshness
same,breath freshness relative to the initial level,[1]; [4],about 60%
same,change of breath freshness compared to immediately after brushing (0 min),"[1]; up to 10 minutes after brushing, toothpaste comprising EC180",only minimally increases
same,level of self-confidence vs flavoured tooth paste alone,"[2]; 10 minutes after brushing, in a flavoured tooth-paste, FIG. 2",significantly increased
same,change of level of self-confidence compared to immediately after brushing (0 min),"[2]; 10 minutes after brushing, toothpaste comprising EC180",noticeable increase
same,self-confidence compared to the level attained immediately after brushing,[2]; [4],more than 80%
same,period of time the level of self-confidence remained elevated after teeth brushing,"[2]; in a flavoured tooth-paste, effect still observed 60 min after brushing",up to 30 min
same,cooling effect,[3],strong and long-lasting cooling effect
